According to the NIST ThermoML archive (doi:10.1021/je0302304):

Assay: xn = mol fraction of the nth substance listed
Settings: 101.32 kPa, Liquid

COCCOC [1,2-dimethoxyethane] + CCO
mass density [kg/m3]
Settings | 288.15 K | 298.15 K | 308.15 K | 318.15 K
x1 = 0.0045 | 794.5 | 786 | 777.3 | 768.5
x1 = 0.0086 | 795.2 | 786.6 | 777.9 | 769
x1 = 0.0125 | 795.8 | 787.1 | 778.4 | 769.6
x1 = 0.0165 | 796.4 | 787.7 | 779 | 770.1
x1 = 0.0205 | 797 | 788.3 | 779.6 | 770.7
x1 = 0.0305 | 798.5 | 789.8 | 781 | 772
x1 = 0.05 | 801.3 | 792.5 | 783.6 | 774.6
x1 = 0.1 | 807.9 | 799 | 790 | 780.7
x1 = 0.15 | 814.2 | 805 | 795.8 | 786.3
x1 = 0.2 | 819.9 | 810.6 | 801.2 | 791.5
x1 = 0.25 | 825.2 | 815.7 | 806.1 | 796.3
x1 = 0.3 | 830.1 | 820.5 | 810.7 | 800.7
x1 = 0.35 | 834.6 | 824.9 | 815 | 804.8
x1 = 0.4 | 838.8 | 829 | 818.9 | 808.7
x1 = 0.45 | 842.7 | 832.8 | 822.6 | 812.2
x1 = 0.5 | 846.4 | 836.3 | 826 | 815.5
x1 = 0.55 | 849.8 | 839.6 | 829.2 | 818.6
x1 = 0.6 | 853 | 842.7 | 832.1 | 821.5
x1 = 0.6499 | 856 | 845.5 | 834.9 | 824.1
x1 = 0.7 | 858.7 | 848.2 | 837.5 | 826.6
x1 = 0.7499 | 861.3 | 850.7 | 839.9 | 829
x1 = 0.7999 | 863.7 | 853.1 | 842.2 | 831.2
x1 = 0.85 | 866.1 | 855.4 | 844.5 | 833.4
x1 = 0.9 | 868.3 | 857.5 | 846.6 | 835.4
x1 = 0.9499 | 870.4 | 859.5 | 848.5 | 837.3
x1 = 1 | 872.4 | 861.5 | 850.4 | 839.2
